The results in this text go back to ChEMBL document CHEMBL4823252 (J Med Chem, 2021).

The target in data set [1] is Receptor-type tyrosine-protein kinase FLT3 (Homo sapiens, UniProt P36888, ITD). Description: Inhibition of FLT3 ITD mutant (unknown origin) incubated for 30 mins in presence of ATP by mobility shift assay.
Data set [2] has as its target Receptor-type tyrosine-protein kinase FLT3 (Homo sapiens, UniProt P36888, D835Y). Description: Inhibition of FLT3 D835Y mutant (unknown origin) incubated for 30 mins in presence of ATP by mobility shift assay.
Data set [3] addresses Platelet-derived growth factor receptor beta (Homo sapiens, UniProt P09619). Description: Inhibition of PDGFRbeta (unknown origin) incubated for 30 mins in presence of ATP by mobility shift assay.
Data set [4] deals with Receptor-type tyrosine-protein kinase FLT3 (Homo sapiens), P36888 [D835H]. Description: Binding affinity to FLT3 D835H mutant (unknown origin) at 1000 nM relative to control.
For data set [5], the system named is Receptor-type tyrosine-protein kinase FLT3 (Homo sapiens), P36888 [K663Q]. Description: Binding affinity to FLT3 K663Q mutant (unknown origin) at 1000 nM relative to control.
In data set [6] the test system is Receptor-type tyrosine-protein kinase FLT3 (Homo sapiens), P36888 [N841I]. Description: Binding affinity to FLT3 N841I mutant (unknown origin) at 1000 nM relative to control.
In another data set the test system is KG-1. Description: Antiproliferative activity against human KG1 cells measured after 72 hrs by CCK8 assay. The data set is classed as functional, cell-based. The note with it: KG-1, 72 h. For orientation: Tetrazolium assays rely on reduction of a dye to a coloured formazan, in cell work by metabolically active cells.
In another data set the test system is THP-1. Description: Antiproliferative activity against human THP-1 cells measured after 72 hrs by CCK8 assay. Type of data set: functional, cell-based. The note with it: THP-1, 72 h.
In the next data set the test system is U-937. Description: Antiproliferative activity against human U-937 cells measured after 72 hrs by CCK8 assay. The conditions noted are these: U-937, 72 h. The data set is classed as functional, cell-based.
A further data set concerns HCT-116. Description: Antiproliferative activity against human HCT116 cells measured after 72 hrs by CCK8 assay. The note with it: HCT-116, 72 h. The data set is classed as functional, cell-based.
Another data set deals with HT-29. Description: Antiproliferative activity against human HT-29 cells measured after 72 hrs by CCK8 assay. The data set is classed as functional, cell-based. The note with it: HT-29, 72 h.
A further data set has as its system HepG2. Description: Antiproliferative activity against human HepG2 cells measured after 72 hrs by CCK8 assay. The data set is classed as functional, cell-based. The note with it: HepG2, 72 h.
The next data set relates to MDA-MB-231. Description: Antiproliferative activity against human MDA-MB-231 cells measured after 72 hrs by CCK8 assay. Type of data set: functional, cell-based. The conditions noted are these: MDA-MB-231, 72 h.
In data set [7] the test system is MOLM-13. Description: Induction of cell cycle arrest in human MOLM-13 cells assessed as accumulation at G2/M phase at 10 nM incubated for 24 hrs by flow cytometry (reference value: […]). Type of data set: functional. In general terms: A flow cytometer gives signals particle by particle.
For data set [8], the system named is MOLM-13. Description: Induction of cell cycle arrest in human MOLM-13 cells assessed as accumulation at G2/M phase at 100 nM incubated for 24 hrs by flow cytometry (reference value: […]). The data set is classed as functional.
In data set [9] the test system is MV4-11. Description: Induction of apoptosis in human MV4-11 cells assessed as late apoptotic cells at 100 nM incubated for 24 hrs by flow cytometry (reference value: 0.58%). Type of data set: functional.
The test system of data set [10] is MOLM-13. Description: Induction of apoptosis in human MOLM-13 cells assessed as viable cells at 10 nM incubated for 24 hrs by flow cytometry (reference value: 92.83%). Type of data set: functional. The note with it: read-out: Activity.
The subject of data set [11] is MOLM-13. Description: Induction of apoptosis in human MOLM-13 cells incubated for 24 hrs by flow cytometry. The data set is classed as functional, cell-based.
Data set [12] addresses Receptor-type tyrosine-protein kinase FLT3 (Homo sapiens) (UniProt P36888). Description: Inhibition of FLT3 in human MV4-11 cells assessed as reduction in autophosphorylation at tyr589/591 residue incubated for 2 hrs by Western blot analysis. The data set is classed as cell-based. (A western blot detects proteins with antibodies after separation by electrophoresis.)
The target is the same in data set [13]. Description: Inhibition of FLT3 in human MOLM-13 cells assessed as reduction in STAT5 phosphorylation incubated for 2 hrs by Western blot analysis. The data set is classed as cell-based.
The target is the same in data set [14]. Description: Inhibition of FLT3 in human MOLM-13 cells assessed as reduction in ERK phosphorylation incubated for 2 hrs by Western blot analysis. The data set is classed as cell-based.
Data set [15] in a line: AUC (0 to infinity) in Sprague-Dawley rat at 1 mg/kg, iv. The conditions noted are these: in vivo. Set-up: route intravenous, time infinity, dose 1 mg/kg. Type of data set: ADME, organism-based.
The nature of data set [16]: MRT (0 to last) in Sprague-Dawley rat at 1 mg/kg, iv. Type of data set: ADME, organism-based. The conditions noted are these: in vivo.
The nature of data set [17]: AUC (0 to last) in Sprague-Dawley rat at 10 mg/kg, po. The data set is classed as ADME, organism-based. Details: route oral, time 0 - last, dose 10 mg/kg. The note with it: in vivo.
The nature of data set [18]: Half life in Sprague-Dawley rat at 10 mg/kg, po. The data set is classed as ADME, organism-based. The note with it: in vivo.
Data set [19] in a line: MRT (0 to last) in Sprague-Dawley rat at 10 mg/kg, po. Type of data set: ADME, organism-based. The conditions noted are these: in vivo.
Data set [20] concerns MV4-11. Description: Antitumor activity against human MV4-11 cells xenografted in po dosed mouse assessed as tumor growth inhibition administered for 20 days measured once every 2 days. Type of data set: functional, organism-based. The note with it: time 20.0 day.
In data set [21] the test system is MV4-11. Description: Antitumor activity against human MV4-11 cells xenografted in mouse assessed as tumor growth inhibition at 2.5 mg/kg, po administered for 20 days measured once every 2 days relative to control. The note with it: MV4-11, po, 480 h, time 20 day, read-out: TGI. The data set is classed as functional.
The test system of data set [22] is MV4-11. Description: Antitumor activity against human MV4-11 cells xenografted in mouse assessed as tumor growth inhibition at 10 mg/kg, po administered for 20 days measured once every 2 days relative to control. Type of data set: functional. The conditions noted are these: MV4-11, po, 480 h, time 20 day, read-out: TGI.
Data set [23] deals with MOLM-13. Description: Antitumor activity against human MOLM-13 cells xenografted in mouse assessed as tumor regression at 40 mg/kg, po administered for 16 days measured on day 4 relative to control. The data set is classed as functional. The conditions noted are these: time 16 day.
The test system of data set [24] is MOLM-13. Description: Antitumor activity against human MOLM-13 cells xenografted in po dosed mouse assessed as inhibition of tumor cell proliferation administered for 16 days measured once for every 2 days by Ki67 staining based immunohistochemical analysis. Type of data set: functional, organism-based. The note with it: time 16.0 day.
The test system of data set [25] is MOLM-13. Description: Antitumor activity against human MOLM-13 cells xenografted in po dosed mouse assessed as induction of apoptosis administered for 16 days measured once for every 2 days by caspase3 staining based immunohistochemical analysis. The conditions noted are these: time 16.0 day. The data set is classed as functional, organism-based.
The nature of data set [26]: Toxicity in mouse xenografted with human MV4-11 cells assessed as effect on heart at 2.5 to 10 mg/kg, po administered for 16 days by hematoxylin and eosin staining based assay. The data set is classed as organism-based. The note with it: in vivo, 384 h, dose 2.5-10 mg/kg, time 16 day.
A short description of data set [27]: Toxicity in mouse xenografted with human MV4-11 cells assessed as effect on liver at 2.5 to 10 mg/kg, po administered for 16 days by hematoxylin and eosin staining assay. The conditions noted are these: in vivo, 384 h, dose 2.5-10 mg/kg, time 16 day. Type of data set: organism-based.
Data set [28] is described as follows: Toxicity in mouse xenografted with human MOLM-13 cells assessed as effect on spleen at 10 to 40 mg/kg, po administered for 20 days by hematoxylin and eosin staining assay. Type of data set: organism-based. The conditions noted are these: in vivo, 480 h, dose 10-40 mg/kg, time 20 day.
Data set [29] deals with MV4-11. Description: Antitumor activity against human MV4-11 cells xenografted in mouse assessed as tumor growth inhibition at 5 mg/kg, po administered for 20 days measured once every 2 days relative to control. The data set is classed as functional. The conditions noted are these: MV4-11, po, 480 h, time 20 day, read-out: TGI.
A short description of data set [30]: Toxicity in mouse xenografted with human MOLM-13 cells assessed as induction of cytoplasmic condensation at 40 mg/kg, po administered for 20 days by hematoxylin and eosin staining assay. The data set is classed as organism-based. The note with it: in vivo, 480 h, time 20 day.

Activity calls are given as the source filed them.

Chain of Platelet-derived growth factor receptor beta (P09619 whole entry): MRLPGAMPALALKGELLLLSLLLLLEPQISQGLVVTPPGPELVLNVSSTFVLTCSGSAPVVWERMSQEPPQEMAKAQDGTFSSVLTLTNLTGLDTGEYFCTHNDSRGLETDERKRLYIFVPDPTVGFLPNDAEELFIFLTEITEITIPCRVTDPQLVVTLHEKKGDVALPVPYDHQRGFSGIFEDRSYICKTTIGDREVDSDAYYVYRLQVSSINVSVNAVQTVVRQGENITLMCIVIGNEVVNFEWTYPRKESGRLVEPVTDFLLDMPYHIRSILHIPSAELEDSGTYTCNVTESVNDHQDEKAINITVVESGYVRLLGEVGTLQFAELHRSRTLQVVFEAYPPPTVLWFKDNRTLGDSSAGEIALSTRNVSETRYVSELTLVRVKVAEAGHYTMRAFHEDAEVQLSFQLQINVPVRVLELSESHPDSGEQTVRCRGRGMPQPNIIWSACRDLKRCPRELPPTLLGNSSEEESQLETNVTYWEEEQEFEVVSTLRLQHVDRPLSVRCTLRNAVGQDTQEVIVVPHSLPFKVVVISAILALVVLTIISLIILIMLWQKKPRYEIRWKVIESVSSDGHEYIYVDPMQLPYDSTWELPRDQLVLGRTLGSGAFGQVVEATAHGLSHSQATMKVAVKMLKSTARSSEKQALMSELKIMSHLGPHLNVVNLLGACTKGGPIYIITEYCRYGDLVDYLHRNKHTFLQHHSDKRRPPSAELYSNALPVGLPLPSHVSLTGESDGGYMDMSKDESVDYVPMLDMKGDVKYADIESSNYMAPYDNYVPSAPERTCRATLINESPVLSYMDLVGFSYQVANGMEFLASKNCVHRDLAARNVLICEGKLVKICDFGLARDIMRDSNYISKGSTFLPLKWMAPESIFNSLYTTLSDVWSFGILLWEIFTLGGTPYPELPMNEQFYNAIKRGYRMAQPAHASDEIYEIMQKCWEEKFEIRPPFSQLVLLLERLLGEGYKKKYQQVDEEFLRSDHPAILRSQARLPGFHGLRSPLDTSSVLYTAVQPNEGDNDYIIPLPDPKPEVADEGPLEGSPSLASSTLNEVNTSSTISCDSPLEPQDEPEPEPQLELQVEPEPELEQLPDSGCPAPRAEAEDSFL

As a reminder, the IC50 is the concentration needed to halve the response being measured. As usually defined, the AUC(0-inf) is the area under the concentration-time curve extrapolated to infinity. By MRT last is commonly meant a mean duration of stay, worked out from the concentration-time curve. As usually defined, the AUC(0-t) is the area under the concentration-time curve up to a stated or last time point. High values mean more exposure, low ones less exposure. For orientation: half-life means the time needed for the level to fall by half in the phase considered. With `Cc1c(NC(=O)CCN2CCCC2)c[nH]c1/C=C1\C(=O)Nc2ccc(F)cc21`, the half-inhibitory concentration (IC50) in data set [1] was 0.0008 µM; in data set [2], 0.0019 µM; in data set [3], 0.0418 µM; with KG-1 it was 1.1 µM; with THP-1, 3.15 µM; with U-937, 5.26 µM. Also, the IC50 in the data set on HCT-116 amounted to 3.98 µM; in the data set on HT-29, 1.54 µM; in the data set with HepG2 it was 1.69 µM; with MDA-MB-231, 1.83 µM. Further, the outcome in [4], in [5] and in data set [6] was Active. The Activity is 2.32% with MOLM-13 [7]; 0.9% in the data set with MOLM-13 [8]; 8.73% in the data set on MV4-11 [9]; “Dose-Dependent Effect” in the data set on MOLM-13 [11]; “Dose-Dependent Effect” in data set [12]; “Dose-Dependent Effect” in data set [13]. Moreover, the Activity entry in data set [14] was “Dose-Dependent Effect”; in the data set with MV4-11 [20] it was “Dose-Dependent Effect”; in the data set with MOLM-13 [23] it was 100%; in the data set on MOLM-13 [24] it was “Dose-Dependent Effect”; in the data set on MOLM-13 [25] it was “Dose-Dependent Effect”; in data set [26], “Non-Toxic”. The Activity result in data set [27] and in [28] was “Non-Toxic” each time. The viability at 0.01 µM with MOLM-13 [10] was 62.3%. Also, the AUC(0-inf) in [15] is 2970 ng·h/mL. Moreover, the MRT last came to 4 h in [16] and 6.6 h in data set [19]. The same compound came in with an AUC(0-t) in data set [17] of 21200 ng·h/mL. Also, in [18], the half-life is 6.1 h. For the same compound, the inhibition in vivo at 2.5 mg/kg with MV4-11 [21] is 55.7%. Also, the inhibition in vivo at 10 mg/kg in the data set on MV4-11 [22] came out at 93.4%.
As to `CCN(CC)CCNC(=O)c1c(C)[nH]c(/C=C2\C(=O)Nc3ccc(F)cc32)c1C` [SUNITINIB], the inhibition in vivo at 5 mg/kg with MV4-11 [29] worked out at 29.9%. Moreover, the Activity result in data set [30] is given as “Toxic”.
